# Target: Acetylcholinesterase (Homo sapiens, UniProt P22303)
# Assay: Inhibition of AChE by Ellman's method
# Details: not given; call rule not given here
# Chain of Acetylcholinesterase (P22303 whole entry): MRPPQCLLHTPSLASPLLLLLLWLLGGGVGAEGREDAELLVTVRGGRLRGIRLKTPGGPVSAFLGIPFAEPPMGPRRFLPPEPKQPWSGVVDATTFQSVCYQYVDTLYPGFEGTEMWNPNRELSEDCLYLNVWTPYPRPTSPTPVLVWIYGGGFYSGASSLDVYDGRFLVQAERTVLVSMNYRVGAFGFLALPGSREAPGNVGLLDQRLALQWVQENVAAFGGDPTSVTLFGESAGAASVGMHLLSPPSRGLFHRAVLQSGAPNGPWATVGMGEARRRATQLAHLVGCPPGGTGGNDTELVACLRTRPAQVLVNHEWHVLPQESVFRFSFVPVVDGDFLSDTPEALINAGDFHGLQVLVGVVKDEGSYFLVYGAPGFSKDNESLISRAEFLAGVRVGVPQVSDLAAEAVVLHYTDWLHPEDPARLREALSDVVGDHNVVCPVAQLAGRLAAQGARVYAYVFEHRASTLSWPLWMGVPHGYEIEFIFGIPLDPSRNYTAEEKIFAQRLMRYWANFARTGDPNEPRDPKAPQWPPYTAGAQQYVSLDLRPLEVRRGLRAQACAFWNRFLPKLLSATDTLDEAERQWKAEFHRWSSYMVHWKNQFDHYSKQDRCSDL
row,Compound,IC50
1,NCCCCNC(=O)/C=C/c1ccc(O)cc1 [P-COUMAROYLPUTRESCINE],Not Active

# Same assay, conditions: read-out: IC50
row,Compound,IC50 [µM]
1,CC(=O)O[C@H]1C[C@@H]2C(=CC[C@]3(C)[C@@H]([C@H](C)N(C)C)[C@H](O)C[C@@]23C)C[C@@]23O[C@@H]2[C@H]2OC[C@](C)([C@H]2NC(=O)c2ccccc2)[C@H]13,3
2,C[C@@H]([C@H]1[C@H](O)C[C@@]2(C)[C@@H]3C[C@H](O)[C@H]4[C@]5(C)CO[C@]4(C=C[C@@H]5NC(=O)c4ccccc4)CC3=CC[C@]12C)N(C)C,8.5
3,C[C@@H]1[C@@H]2CC[C@@H]3C(=CC[C@]4(C)[C@@H]([C@H](C)N(C)C)[C@H](O)C[C@@]34C)C=C2CC[C@@H]1N(C)C [31-DEMETHYLBUXAMINOL],25.8
4,CC(=O)O[C@@H]1C[C@@]2(C)[C@@H]3C[C@H]4OC[C@@]5(C)[C@@H](NC(=O)c6ccccc6)C=C[C@@](O)(CC3=CC[C@]2(C)[C@H]1[C@H](C)N(C)C)[C@@H]45 [BUXAFURANAMIDE],14
5,CC(=O)O[C@@H]1C[C@@]2(C)[C@@H]3CC[C@H]4[C@](C)(CO)[C@@H](NC(=O)c5ccccc5)C=C[C@]4(O)CC3=CC[C@]2(C)[C@H]1[C@H](C)N(C)C [BUXALONGIFOLAMIDINE],30.2
6,C[C@@H]([C@H]1CC[C@@]2(C)[C@@H]3CC[C@@H]4C(=CC3=CC[C@]12C)CC[C@H](N(C)C)C4(C)C)N(C)C [BUXAMINE A],80
7,C[C@@H]([C@H]1[C@H](O)C[C@@]2(C)[C@@H]3CC[C@@H]4C(=CC3=CC[C@]12C)CC[C@H](N(C)C)C4(C)C)N(C)C [BUXAMINOL A],29.8
8,CN[C@H]1CCC2=CC3=CC[C@]4(C)[C@@H]([C@H](C)N(C)C)[C@H](O)C[C@@]4(C)[C@@H]3CC[C@H]2C1(C)C [BUXAMINOL C],40
9,C/C=C1/C(=O)C[C@@]2(C)[C@@H]3CC[C@H]4C(C)(C)[C@@H](N(C)C)CC[C@@]45C[C@@]35CC[C@]12C [CYCLOBUXOPHYLLINE K],58.2
10,C[C@@H]([C@H]1[C@H](O)C[C@@]2(C)[C@@H]3C=C[C@H]4C(C)(C)[C@@H](N(C)C)[C@H](O)C[C@@]45C[C@@]35CC[C@]12C)N(C)C [CYCLONATAMINOL],22.9

# Source: ChEMBL document CHEMBL1649337, “Triterpenoidal alkaloids from Buxus natalensis and their acetylcholinesterase inhibitory activity” (J Nat Prod, 2010)
